Measured values published in ChEMBL document CHEMBL1201862, “PubChem BioAssay data set” (2004).
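A five-concentration, 48-hour dose response in 96-well plates underlies each endpoint, interpolated linearly between surrounding concentrations. The concentration for 50% growth inhibition is given as GI50.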 Calls of active or inactive are those of the source. No stated cut-off is given here; in the data, active = GI50 up to about 1.1 µM and inactive = higher.

Experiments:
Experiment in all cases: NCI anticancer screen, dose series, 48 h
HCT-15 = system: HCT-15
OVCAR-5 = system: OVCAR-5
LOX IMVI = system: LOX IMVI
U-251 = system: U-251
SK-MEL-5 = system: SK-MEL-5
OVCAR-4 = system: OVCAR-4
SNB-19 = system: SNB-19
K562 = system: K562
HCT-116 = system: HCT-116
NCI-H460 = system: NCI-H460
COLO 205 = system: COLO 205
HCC 2998 = system: HCC 2998
UACC-257 = system: UACC-257
A549 = system: A549
EKVX = system: EKVX
SF-539 = system: SF-539
UO-31 = system: UO-31
NCI-H23 = system: NCI-H23
MDA-MB-435 = system: MDA-MB-435
MDA-MB-231 = system: MDA-MB-231

SMILES	GI50 (HCT-15) [µM]	GI50 (OVCAR-5)	GI50 (LOX IMVI)	GI50 (U-251)	GI50 (SK-MEL-5)	GI50 (OVCAR-4)	GI50 (SNB-19)	GI50 (K562)	GI50 (HCT-116)	GI50 (NCI-H460)	GI50 (COLO 205)	GI50 (HCC 2998)	GI50 (UACC-257)	GI50 (A549)	GI50 (EKVX)	GI50 (SF-539)	GI50 (UO-31)	GI50 (NCI-H23)	GI50 (MDA-MB-435)	GI50 (MDA-MB-231)
C[n+]1cn(CC(=O)c2ccccc2)c(C(N)=O)c1N	80.7	> 100 µM (inactive)	> 100 µM (inactive)	94.6 µM (inactive)	33 µM (inactive)	> 100 µM (inactive)	> 100 µM (inactive)	> 10 µM (inactive)	24.2 µM (inactive)	> 100 µM (inactive)	41.4 µM (inactive)	> 100 µM (inactive)	> 100 µM (inactive)	> 100 µM (inactive)	> 100 µM (inactive)	> 100 µM (inactive)	> 100 µM (inactive)	> 100 µM (inactive)		
O=c1[nH]c(=O)n(C2CC(O)C(CO)O2)cc1C#Cc1c(F)c(F)c(F)c(F)c1F (centres undefined)	> 100	> 100 µM (inactive)	> 100 µM (inactive)	> 100 µM (inactive)	> 100 µM (inactive)	> 100 µM (inactive)	> 100 µM (inactive)	> 100 µM (inactive)	> 100 µM (inactive)	> 100 µM (inactive)	> 100 µM (inactive)	> 100 µM (inactive)	> 100 µM (inactive)	> 100 µM (inactive)	> 100 µM (inactive)	> 100 µM (inactive)	> 100 µM (inactive)	> 100 µM (inactive)		
CN(C)C=C1C(Cl)=C(C=O)CC(C=O)=C1Cl	3.42	15.9 µM (inactive)	2.19 µM (inactive)	11.4 µM (inactive)	10.4 µM (inactive)	14.4 µM (inactive)	14.3 µM (inactive)	3.03 µM (inactive)		20.7 µM (inactive)	15.6 µM (inactive)	15.2 µM (inactive)	14.9 µM (inactive)	86.9 µM (inactive)	22.4 µM (inactive)	14.8 µM (inactive)	17.7 µM (inactive)	14.6 µM (inactive)		
Cc1ccc(C)c(N2C(=O)C(=O)C(c3nc4ccccc4s3)/C(=N/N)C2=O)c1 (centres undefined)	> 100	> 100 µM (inactive)	> 100 µM (inactive)	> 100 µM (inactive)	> 100 µM (inactive)	> 46.9 µM (inactive)	> 100 µM (inactive)	> 100 µM (inactive)	> 34.4 µM (inactive)	> 100 µM (inactive)	> 39.3 µM (inactive)	> 100 µM (inactive)	> 27.9 µM (inactive)	> 100 µM (inactive)	> 100 µM (inactive)	> 100 µM (inactive)	> 100 µM (inactive)	> 80.5 µM (inactive)		
CC(CC(=O)Nc1ccc(NC(=O)CC(C)/N=N\C(N)=S)cc1)/N=N\C(N)=S (centres undefined)	85.9	> 100 µM (inactive)	57.5 µM (inactive)		> 100 µM (inactive)	> 100 µM (inactive)	> 100 µM (inactive)	> 100 µM (inactive)	> 100 µM (inactive)	> 100 µM (inactive)	> 100 µM (inactive)	> 100 µM (inactive)	> 100 µM (inactive)	> 100 µM (inactive)	> 100 µM (inactive)	> 100 µM (inactive)	> 100 µM (inactive)	> 100 µM (inactive)		
Cc1cc(NS(=O)(=O)c2ccc(Nc3c4ccccc4nc4c(C(=O)Nc5ccc(S(=O)(=O)N=C(N)N)cc5)cccc34)cc2)no1	> 100	> 100 µM (inactive)	> 100 µM (inactive)	> 100 µM (inactive)	> 100 µM (inactive)	> 100 µM (inactive)	> 100 µM (inactive)	> 100 µM (inactive)	> 100 µM (inactive)	> 100 µM (inactive)	> 100 µM (inactive)	> 100 µM (inactive)	> 100 µM (inactive)	> 100 µM (inactive)	> 100 µM (inactive)	> 100 µM (inactive)	> 100 µM (inactive)	> 100 µM (inactive)		
CN(C)C(=S)/N=c1\ss/c(=N\C(=S)N(C)C)n1-c1cccc(Cl)c1	> 100	> 100 µM (inactive)	> 100 µM (inactive)	> 100 µM (inactive)	> 100 µM (inactive)	> 100 µM (inactive)	> 100 µM (inactive)	> 100 µM (inactive)	> 100 µM (inactive)	> 100 µM (inactive)	> 100 µM (inactive)	> 100 µM (inactive)	> 100 µM (inactive)	> 100 µM (inactive)	> 100 µM (inactive)	> 100 µM (inactive)	> 100 µM (inactive)	> 100 µM (inactive)		
Cc1ccc(S(=O)(=O)O/N=C2\CCC\C2=C/c2ccccc2)cc1	22.9	23 µM (inactive)	25.9 µM (inactive)	31.6 µM (inactive)	14.8 µM (inactive)	23.3 µM (inactive)	30.5 µM (inactive)	26.7 µM (inactive)	12.4 µM (inactive)	19.5 µM (inactive)	16.3 µM (inactive)	17.7 µM (inactive)	17.1 µM (inactive)	29.4 µM (inactive)	19.6 µM (inactive)	19.9 µM (inactive)	19.9 µM (inactive)	19.4 µM (inactive)		
Cn1cc2ccccc2c1-c1nc(F)nc(F)n1	> 100	> 100 µM (inactive)	> 100 µM (inactive)	> 100 µM (inactive)	> 100 µM (inactive)	> 100 µM (inactive)	> 100 µM (inactive)	> 100 µM (inactive)	> 100 µM (inactive)	> 100 µM (inactive)	> 100 µM (inactive)	> 100 µM (inactive)		> 100 µM (inactive)	> 100 µM (inactive)	> 100 µM (inactive)	> 100 µM (inactive)	> 100 µM (inactive)		
COc1ccccc1NC(=O)C1=C(C)NC(C)=C(C(=O)Nc2ccccc2OC)C1c1cccc2c1OCO2	> 100	> 100 µM (inactive)	> 100 µM (inactive)	> 100 µM (inactive)	46 µM (inactive)	> 100 µM (inactive)	91.8 µM (inactive)	51.1 µM (inactive)	71.9 µM (inactive)	> 100 µM (inactive)	> 100 µM (inactive)	85.7 µM (inactive)	> 100 µM (inactive)	62.7 µM (inactive)	> 100 µM (inactive)	21.4 µM (inactive)	47.4 µM (inactive)	> 100 µM (inactive)		
COc1ccc2c3c([nH]c(=O)c2c1C(=O)O)-c1ccccc1CC3	> 100	> 100 µM (inactive)	> 100 µM (inactive)	> 100 µM (inactive)	> 100 µM (inactive)	> 100 µM (inactive)	> 100 µM (inactive)	> 100 µM (inactive)	> 100 µM (inactive)	> 100 µM (inactive)	> 100 µM (inactive)	> 100 µM (inactive)		> 100 µM (inactive)	49.7 µM (inactive)	> 100 µM (inactive)	> 100 µM (inactive)	> 100 µM (inactive)		
OCC(O)C(O)c1nn(-c2ccccc2)c2nc3cc(Cl)c(Cl)cc3nc12 (centres undefined)	23.6	14.8 µM (inactive)	19.5 µM (inactive)	29.1 µM (inactive)	26.4 µM (inactive)	24.7 µM (inactive)	48.2 µM (inactive)	13.3 µM (inactive)	16.8 µM (inactive)	27.7 µM (inactive)	24.7 µM (inactive)	31.9 µM (inactive)	36.7 µM (inactive)	15.6 µM (inactive)	26.2 µM (inactive)	24 µM (inactive)	5.98 µM (inactive)	41.5 µM (inactive)		
NC(=O)C(=Cc1ccc(C(O)P(=O)(O)O)cc1)C(N)=O (centres undefined)	> 100	> 100 µM (inactive)	> 100 µM (inactive)	> 100 µM (inactive)	> 100 µM (inactive)	> 100 µM (inactive)	> 100 µM (inactive)	> 100 µM (inactive)	> 100 µM (inactive)	> 100 µM (inactive)	> 100 µM (inactive)	> 100 µM (inactive)	> 100 µM (inactive)	> 100 µM (inactive)	> 100 µM (inactive)	> 100 µM (inactive)	> 100 µM (inactive)	> 100 µM (inactive)		
CCC1(CN(C)C)CC/C(=C\c2ccc(OC)cc2)C1=O (centres undefined)	23.5	> 100 µM (inactive)	> 100 µM (inactive)	> 100 µM (inactive)	58.6 µM (inactive)	> 100 µM (inactive)	> 100 µM (inactive)	40.9 µM (inactive)	93.1 µM (inactive)	> 100 µM (inactive)	80.7 µM (inactive)	> 100 µM (inactive)	89.3 µM (inactive)	> 100 µM (inactive)	> 100 µM (inactive)	> 100 µM (inactive)	> 100 µM (inactive)	> 100 µM (inactive)		
CCc1cccc2c3c([nH]c12)-c1ccccc1NC(=O)C3	84.1	> 100 µM (inactive)	72.9 µM (inactive)	> 100 µM (inactive)	> 100 µM (inactive)		> 100 µM (inactive)	19.4 µM (inactive)		> 100 µM (inactive)	> 100 µM (inactive)		> 100 µM (inactive)	> 100 µM (inactive)	> 100 µM (inactive)		> 100 µM (inactive)	> 100 µM (inactive)	35.3 µM (inactive)	5.66 µM (inactive)
Cc1ccc2c(O)cc(-c3ccc4ccccc4c3)nc2n1	3.54	19.3 µM (inactive)	5.14 µM (inactive)			6.25 µM (inactive)	9.48 µM (inactive)	3.41 µM (inactive)			2.11 µM (inactive)	10.8 µM (inactive)	5.58 µM (inactive)	7.89 µM (inactive)	5.96 µM (inactive)	4.74 µM (inactive)	8 µM (inactive)	4.41 µM (inactive)		14.3 µM (inactive)
